Results reported in patent US20160083397A1, “PARTHENOLIDE DERIVATIVES AND THEIR MODULATION OF PROCESSES CONTROLLED BY REGULATED TRANSLATION” (THE BOARD OF TRUSTEES OF THE UNIVERSITY OF ARKANSAS, priority 2013, published 2016).

What was measured:
[1] = tested on: Xenopus oocytes; test: Xenopus oocyte maturation assay; type: cell-based; details: for Xenopus Oocyte Maturation Assay, With Progesterone: test compound 100 μM, progesterone 2 μg/mL, inhibitor = slowed rate of progesterone-dependent GVBD by 20% or more
Text: An in vivo Xenopus oocyte maturation assay was used to screen the compounds for their ability to modulate the activity of cell cycle control proteins, mRNA translational control proteins, and/or proteins involved in signaling pathways. In this assay, oocyte maturation (or cell cycle progression) is monitored phenotypically using an image capture system. Oocyte maturation is correlated with the appearance of a white spot at the animal pole of the darkly pigmented animal hemisphere of the oocyte. The white spot appears because the germinal vesicle (i.e., the large nucleus of the oocyte) migrates to the animal pole prior to meiotic germinal vesicle breakdown (GVBD).
Immature stage VI Xenopus oocytes were transferred to wells of a flat bottom 96-well plate containing about 178 μL of L15 culture media. The oocytes were transferred using wide mouth 200 μL pipette tips with minimal transfer of culture medium (e.g., about 20 μL). Generally, the oocytes oriented with the pigmented animal hemisphere facing up due to the higher density of the yolk-containing vegetal hemisphere. Incorrectly orientated oocytes were gently manipulated using a drawn-out capillary tube to rotate them into the correct orientation.
Forty-four test compounds were dissolved in DMSO to make 100× stock solutions. The test compounds were added to the appropriate wells at a final concentration of 100 μM (and 1% DMSO). Control oocytes were exposed to 1% DMSO only (generally the first and last wells of a plate contained the untreated, control oocytes). Sixteen hours later, progesterone was added to each well to stimulate progesterone-dependent oocyte maturation. For this, 2 μL of 1000× stock solution (2 mg/mL in ethanol) was added to the appropriate wells to yield a final concentration of 2 μg/mL. The rate of maturation in the control oocytes (i.e., those in the first and last wells) served as an intra-assay control for time taken for progesterone addition across the multi-well plate.
The 96-well plate was imaged from above (i.e., top-down) using a 36-megapixel Nikon D800 SLR camera with an AF Micro Nikkor 60 mm, f/2.8 lens, mounted on a dedicated copy stand (with adjustable flanking light sources). The plate was imaged prior to and after addition of progesterone (i.e., images were taken at regular intervals over a period of 7 hours). The high resolution images were digitally zoomed after capture to analyze the maturation status of oocytes in individual wells of the plate. Test compounds that slowed the rate of progesterone-dependent GVBD by 20% or more were classified as inhibitors (assessed relative to the time 50% of the population of control, vehicle treated oocytes had undergone GVBD (GVBD50)).
To determine whether the test compounds were able to activate oocyte maturation in a progesterone-independent manner, oocytes were incubated in the presence of the test compound (dissolved in DMSO) or DMSO only. The oocytes were imaged at regular intervals for the evidence of GVBD, or subsets of oocytes were removed at predetermined times and the activation status of key cell cycle control proteins (e.g., pMAP kinase, pCcd2, etc.) was analyzed by Western blotting. For example, activation of pMAP kinase is associated with increased phosphorylation whereas activation of pCdc2 is associated with decreased phosphorylation. Compounds were classified as an activator if they were able to induce GVBD in the absence of added progesterone. Further, compounds were classified as accelerators if they accelerated the rate of progesterone-stimulated GVBD, but were unable to induce GVBD in the absence of progesterone. The criteria for test compounds to be considered accelerators is that they must increase the rate of progesterone-dependent GVBD by 20% or more at one dose (assessed relative to the time 50% of the population of control, vehicle treated oocytes had undergone GVBD (GVBD50)).

[2] = tested on: MCF-7 cells; test: Mammosphere formation, MCF-7; type: cell-based; details: compound present first 3 days, scored day 14 (P2), 50, 5 and 0.5 μM
Text: Mammosphere culture growth presents a useful indicator of the presence of breast cancer cells with stem cell-like properties. Breast cancer cell lines grown as mammospheres (under non-adherent plating conditions) recapitulate the three-dimensional organization of tumors. Importantly, assessment of stem cell self-renewal capacity can be achieved through dispersion of mammospheres to single cells and subsequent limited dilution replating. To determine whether PNR-5-46, PNR-5-41, or JVM-20 inhibited mammosphere formation in this system, […], and then cultured in the absence of the test compound. At day 7, mammospheres were collected, dispersed to single cells and replated at limiting dilution (P1). Spheroids were scored at day 14 (P2). Mammosphere forming units (MFUs) are defined as spheroid bodies >100 μm (MCF-7 cells) or >65 μm (MDA MB231 cells) diameter after 7 (P1) or 14 (P2) days growth in non-adherent culture.

[3] = tested on: neuroblastoma cell line SHSY5Y; test: Neurosphere formation, SHSY5Y; type: cell-based; details: lowest dose tested 0.5 μM
Protocol: (§1) The activity of the three test compounds to inhibit neurosphere formation was also tested in a neuroblastoma cell line SHSY5Y and a glioblastomoa cell line U87. All three compounds attenuated neurosphere formation in both cell lines, to varying degrees of efficacy (FIG. 2A,B). […] None of the compounds affected cell viability.

[4] = tested on: glioblastomoa cell line U87; test: Neurosphere formation, U87; type: cell-based; details: lowest dose tested 0.5 μM
Protocol: as §1

C[C@@]12CCC=C(CO)C3C[C@H]4/C(=C\c5ccccc5)C(=O)O[C@@H]4[C@@]31O2 (stereo partly shown)
melting point: 115 to 117 °C

13-(4-aminophenyl)parthenolide [PNR-5-41]
Xenopus Oocyte Maturation Assay, With Progesterone [1]: Inhibitor | mammosphere formation relative to DMSO-treated control cells [2]: did not | neurosphere formation / stem cell self-renewal [3]: Significant inhibition | neurosphere formation / stem cell self-renewal [4]: Significant inhibition

C/C1=C\CC[C@@]2(C)O[C@H]2[C@H]2OC(=O)[C@@H](CNc3nc4ccccc4[nH]3)[C@@H]2CC1 [JVM-9, 13-(2-aminobenzimidazole)parthenolide]
Xenopus Oocyte Maturation Assay, Without Progesterone ([1]; no progesterone, activator = able to induce GVBD in the absence of added progesterone): Activator

CC1=CCCC2(C)OC2C2OC(=O)C(CNCCN3CCOCC3)C2CC1 (stereo not shown) [JVM-11, 13-(aminoethylmorpholino)parthenolide]
Xenopus Oocyte Maturation Assay, With Progesterone [1]: Inhibitor
